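Values below derive from 48-hour exposures of cells grown in 96-well plates, with endpoints linearly interpolated between the two concentrations bracketing the appropriate inhibition level. At the GI50, growth is halved.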 The source made the active and inactive calls. Rule as the data show it: active = GI50 up to about 1.1 µM and inactive = higher. Starred links: 1 amine or outer side, 2 acyl side, 3 side chain; linkers in the order of their positions; H or OH if unused. Non-standard residues stand in square brackets, D forms with d. Residues, ends and D or L forms follow the SMILES beside them. X4 = C[C@H](N[*:1])C(=O)C(C)(C)C(=O)[*:2]; Hmpa(2S,3S) = CC[C@H](C)[C@H](O)C(=O)O; NMeY = CN[C@@H](Cc1ccc(O)cc1)C(=O)O; NMeL = CN[C@@H](CC(C)C)C(=O)O; NMeV = CN[C@H](C(=O)O)C(C)C; βAla = NCCC(=O)O
Columns and labels:
Experiment in all cases: inhibition of tumour cell growth, NCI panel, 48 h
786-0 = test system: 786-0
A498 = test system: A498
A549 = test system: A549
CAKI-1 = test system: CAKI-1
COLO 205 = test system: COLO 205
HCT-116 = test system: HCT-116
HCT-15 = test system: HCT-15
HT-29 = test system: HT-29
LOX IMVI = test system: LOX IMVI
MDA-MB-231 = test system: MDA-MB-231
MDA-MB-435 = test system: MDA-MB-435
MDA-N = test system: MDA-N
NCI-H226 = test system: NCI-H226
NCI-H23 = test system: NCI-H23
NCI/ADR-RES = test system: NCI/ADR-RES
SK-MEL-2 = test system: SK-MEL-2
SNB-75 = test system: SNB-75
SW-620 = test system: SW-620
U-251 = test system: U-251
UO-31 = test system: UO-31

SMILES	GI50 (786-0)	GI50 (A498)	GI50 (A549)	GI50 (CAKI-1)	GI50 (COLO 205)	GI50 (HCT-116)	GI50 (HCT-15) [µM]	GI50 (HT-29)	GI50 (LOX IMVI)	GI50 (MDA-MB-231)	GI50 (MDA-MB-435)	GI50 (MDA-N)	GI50 (NCI-H226)	GI50 (NCI-H23)	GI50 (NCI/ADR-RES)	GI50 (SK-MEL-2)	GI50 (SNB-75)	GI50 (SW-620)	GI50 (U-251)	GI50 (UO-31)
O=C(CN1CCOCC1)CC(O)(C(F)(F)F)C(F)(F)F	> 100 µM (inactive)	> 100 µM (inactive)	> 100 µM (inactive)	78.3 µM (inactive)	> 100 µM (inactive)	44.9 µM (inactive)	55.5	> 10 µM (inactive)	46 µM (inactive)	> 100 µM (inactive)	> 100 µM (inactive)	> 100 µM (inactive)	> 100 µM (inactive)	33.5 µM (inactive)	> 100 µM (inactive)	97.3 µM (inactive)	38.6 µM (inactive)	48.9 µM (inactive)	51.4 µM (inactive)	51.3 µM (inactive)
N#Cc1nnn(C2CCCCC2)c1O	> 100 µM (inactive)	> 100 µM (inactive)	> 100 µM (inactive)	> 100 µM (inactive)	> 100 µM (inactive)	> 100 µM (inactive)	> 100	> 100 µM (inactive)	> 100 µM (inactive)	> 100 µM (inactive)	> 100 µM (inactive)	> 100 µM (inactive)	> 100 µM (inactive)	> 100 µM (inactive)	> 100 µM (inactive)	> 100 µM (inactive)	> 100 µM (inactive)	> 100 µM (inactive)	> 100 µM (inactive)	> 100 µM (inactive)
Cc1cccc2c1CC1(C2)Cc2c(C)cccc2C1=O (stereo not given)	23.8 µM (inactive)	32.1 µM (inactive)	22.4 µM (inactive)	10.3 µM (inactive)	15.6 µM (inactive)	16.5 µM (inactive)	29	29.9 µM (inactive)	17.5 µM (inactive)	23.6 µM (inactive)	24.8 µM (inactive)	26.9 µM (inactive)	26.8 µM (inactive)	31.4 µM (inactive)	38.1 µM (inactive)	16.9 µM (inactive)	18.6 µM (inactive)	29.9 µM (inactive)	23.8 µM (inactive)	23.1 µM (inactive)
CC(=O)Oc1c(C)c2c(O)c3c1C1=C(OCOC1=C(C)C3=O)/C(C)=C/C(C)(O)C(O)C(C)C(O)C1C(=O)OC(C(C)C1O)C(C)(O)/C=C\C=C(C)C(=O)N2 (stereo not given)	53.7 µM (inactive)	15.1 µM (inactive)	76 µM (inactive)	17.1 µM (inactive)	86.5 µM (inactive)	57.1 µM (inactive)	48.9	> 100 µM (inactive)	27.4 µM (inactive)	21.5 µM (inactive)	> 100 µM (inactive)	> 100 µM (inactive)	18.1 µM (inactive)	50.5 µM (inactive)	78.3 µM (inactive)	34.4 µM (inactive)	24 µM (inactive)	63 µM (inactive)	39.7 µM (inactive)	11.1 µM (inactive)
O=C(O)CCC(=O)Nc1ccc2ccccc2c1	> 100 µM (inactive)	> 100 µM (inactive)	> 100 µM (inactive)	> 100 µM (inactive)	> 100 µM (inactive)	> 100 µM (inactive)	> 100	> 100 µM (inactive)	> 100 µM (inactive)	> 100 µM (inactive)	> 100 µM (inactive)	> 100 µM (inactive)	> 100 µM (inactive)	> 100 µM (inactive)	> 100 µM (inactive)	> 100 µM (inactive)	> 100 µM (inactive)	> 100 µM (inactive)	> 100 µM (inactive)	> 100 µM (inactive)
CC(=O)C1C(=O)C(C(C)=O)C2C3C=CC(C3)C12 (stereo not given)	> 100 µM (inactive)	> 100 µM (inactive)	> 100 µM (inactive)	> 100 µM (inactive)	> 100 µM (inactive)	> 100 µM (inactive)	> 100	> 100 µM (inactive)	> 100 µM (inactive)	> 100 µM (inactive)	> 100 µM (inactive)	> 100 µM (inactive)	> 100 µM (inactive)	> 100 µM (inactive)	> 100 µM (inactive)	> 100 µM (inactive)	> 100 µM (inactive)	> 100 µM (inactive)	> 100 µM (inactive)	> 100 µM (inactive)
O=C1Nc2ccccc2/C1=N/Nc1ccccc1[N+](=O)[O-]	14.5 µM (inactive)	32.8 µM (inactive)	34.4 µM (inactive)	21.6 µM (inactive)	69.7 µM (inactive)	25.9 µM (inactive)	55.5	> 100 µM (inactive)	36.4 µM (inactive)	28.4 µM (inactive)	> 100 µM (inactive)	> 100 µM (inactive)	1.67 µM (inactive)	16.3 µM (inactive)	17 µM (inactive)	> 100 µM (inactive)	16.5 µM (inactive)	32.1 µM (inactive)	15.5 µM (inactive)	24.3 µM (inactive)
CC1=NN(C(=O)c2ccccc2O)C(=O)/C1=C/c1ccco1	1.64 µM (inactive)	2.43 µM (inactive)	7.19 µM (inactive)	1.61 µM (inactive)	10.5 µM (inactive)	2.23 µM (inactive)	2.22	12.4 µM (inactive)	2.67 µM (inactive)	15.1 µM (inactive)	0.581 µM (active)	0.53 µM (active)	3.46 µM (inactive)	1.53 µM (inactive)	4.44 µM (inactive)	5.02 µM (inactive)	3.02 µM (inactive)	3.3 µM (inactive)	6.89 µM (inactive)	0.404 µM (active)
CC(=O)/C(=C\NC(N)=S)C(=O)Nc1ccccc1C	> 100 µM (inactive)	> 100 µM (inactive)	> 100 µM (inactive)	> 100 µM (inactive)	> 100 µM (inactive)	> 100 µM (inactive)	> 100	> 100 µM (inactive)	> 100 µM (inactive)	> 100 µM (inactive)	> 100 µM (inactive)	> 100 µM (inactive)	> 100 µM (inactive)	> 100 µM (inactive)	> 100 µM (inactive)	> 100 µM (inactive)	> 100 µM (inactive)	> 100 µM (inactive)	> 100 µM (inactive)	> 100 µM (inactive)
CCOc1cccc(/C=N/N=C2\C(=O)Nc3c(Cl)cc(Cl)cc32)c1O	74.6 µM (inactive)	36.6 µM (inactive)	> 100 µM (inactive)	> 100 µM (inactive)	> 100 µM (inactive)	74.3 µM (inactive)	54.6	> 100 µM (inactive)	32.5 µM (inactive)	37.2 µM (inactive)	44.8 µM (inactive)	45.7 µM (inactive)	> 100 µM (inactive)	50.1 µM (inactive)	33.3 µM (inactive)	83.8 µM (inactive)	40.9 µM (inactive)	75.9 µM (inactive)	46.5 µM (inactive)	34 µM (inactive)
C1C2CC3CC1CC(Nc1nc(NC45CC6CC(CC(C6)C4)C5)nc(NC45CC6CC(CC(C6)C4)C5)n1)(C2)C3	> 20.8 µM (inactive)	> 51.4 µM (inactive)	> 53 µM (inactive)	> 100 µM (inactive)	28.7 µM (inactive)	> 51.9 µM (inactive)	62.1	> 100 µM (inactive)	11.1 µM (inactive)	> 100 µM (inactive)	> 56.4 µM (inactive)	74.3 µM (inactive)	> 100 µM (inactive)	> 43.9 µM (inactive)	9.31 µM (inactive)	> 70 µM (inactive)	16.9 µM (inactive)	79.4 µM (inactive)	43.8 µM (inactive)	> 38.3 µM (inactive)
CC[C@H](C)[C@@H]1OC(=O)CCNC(=O)[C@@H](C)NC(=O)C(C)(C)C(=O)[C@H](C)NC(=O)[C@H](Cc2ccc(OC)cc2)N(C)C(=O)[C@H](C(C)C)N(C)C(=O)CNC(=O)[C@H](CC(C)C)N(C)C(=O)CNC1=O (cyclo(G[NMeL]G[NMeV][NMeY](Me)[X4][dA][βAla][Hmpa(2S,3S)]))	0.676 µM (active)	1.38 µM (inactive)	0.37 µM (active)	1.53 µM (inactive)	0.0252 µM (active)	0.0352 µM (active)	1.63	1.84 µM (inactive)	0.175 µM (active)	0.476 µM (active)	0.953 µM (active)	0.299 µM (active)	5.92 µM (inactive)	0.262 µM (active)	26.4 µM (inactive)	0.222 µM (active)	0.348 µM (active)	0.0625 µM (active)	0.0855 µM (active)	7.76 µM (inactive)
O=c1c2sc(=S)n(-c3ccc(F)cc3)c2ncn1/N=C/c1ccc(F)cc1F	17.2 µM (inactive)	19.3 µM (inactive)	46 µM (inactive)	14.4 µM (inactive)	> 100 µM (inactive)	31 µM (inactive)	88.9	> 100 µM (inactive)	43.6 µM (inactive)	21.1 µM (inactive)	83.9 µM (inactive)	> 100 µM (inactive)	24.4 µM (inactive)	33.4 µM (inactive)	33 µM (inactive)	25.4 µM (inactive)	16 µM (inactive)	> 100 µM (inactive)	23.4 µM (inactive)	24.9 µM (inactive)
CS(=O)(=O)O[C@H]1[C@H](O)c2ccccc2[C@@H]1N=[N+]=[N-]	> 100 µM (inactive)	> 100 µM (inactive)	> 100 µM (inactive)	> 100 µM (inactive)	> 100 µM (inactive)	> 100 µM (inactive)	> 100	> 100 µM (inactive)	> 100 µM (inactive)	> 100 µM (inactive)	> 100 µM (inactive)	> 100 µM (inactive)	> 100 µM (inactive)	> 100 µM (inactive)	> 100 µM (inactive)	> 100 µM (inactive)	21.4 µM (inactive)	> 100 µM (inactive)	> 100 µM (inactive)	> 100 µM (inactive)
